Reference: paper PMC11969548 (2025)

Legend:
[1] = tested on: P27 (DD aptagel) (DNA, aptamer) CGACCGAGGGTACCGCAATAGTACTTA/TTGTTCGCCTATTGTGGGTCGGGTCG; experiment: angular SPR of hydrogel film; conditions: PBS, 2 mM Mg2+, 200-fold diluted rat plasma, 37 °C
[2] = tested on: P27 (monolayer) (DNA, aptamer) CGACCGAGGGTACCGCAATAGTACTTA/TTGTTCGCCTATTGTGGGTCGGGTCG; experiment: SPR, dissociation phase fit; conditions: PBS, 2 mM Mg2+, pH 7.4, 37 °C, split 2 in solution, independent of analyte concentration
[3] = tested on: P27.i (monolayer) (DNA, aptamer) CGACCGAGGGTACCGCAATAGTACTTA/TTGTTCGCCTATTGCGGGTCGGGTCG; experiment: SPR, dissociation phase fit; conditions: PBS, 2 mM Mg2+, pH 7.4, 37 °C, split 2 in solution, independent of analyte concentration
[4] = tested on: PolyA (PA) aptagel (DNA, single strand) AAAAAAAAAAAAAAAAAAAAAAAAAAA; experiment: angular SPR of hydrogel film; conditions: PBS, 2 mM Mg2+; 37 °C; 1 mM vancomycin; 3 mM poly A, [ene]/[SH] 4
[5] = tested on: P27 (MM aptagel) (DNA, aptamer) CGACCGAGGGTACCGCAATAGTACTTA/TTGTTCGCCTATTGTGGGTCGGGTCG; experiment: angular SPR and QCM-D of hydrogel film; conditions: PBS, 2 mM Mg2+; 37 °C; 1 mM vancomycin; 1 mM aptamer; reversible; smallest response
[6] = tested on: P27 (MD aptagel) (DNA, aptamer) CGACCGAGGGTACCGCAATAGTACTTA/TTGTTCGCCTATTGTGGGTCGGGTCG; experiment: angular SPR and QCM-D of hydrogel film; conditions: PBS, 2 mM Mg2+; 37 °C; 1 mM vancomycin; 1 mM aptamer; reversible
[7] = tested on: Full (full-length parent aptamer, aptagel) (DNA, aptamer) CGACCGAGGGTACCGCAATAGTACTTATTGTTCGCCTATTGTGGGTCGGGTCG; experiment: angular SPR and QCM-D of hydrogel film; conditions: PBS, 2 mM Mg2+; 37 °C; 1 mM vancomycin; 1 mM aptamer; partly irreversible
[8] = tested on: P27 (DD aptagel) (DNA, aptamer) CGACCGAGGGTACCGCAATAGTACTTA/TTGTTCGCCTATTGTGGGTCGGGTCG; experiment: angular SPR of hydrogel film, dissociation phase fit; conditions: PBS, 2 mM Mg2+; pH 7.4, 37 °C; vancomycin below 50 µM; rises to 0.7 above 100 µM; apparent
[9] = concentration matching refractive index of 10 µM vancomycin

Structure (SMILES): CC1(C)S[C@@H]2[C@H](NC(=O)[C@H](N)c3ccccc3)C(=O)N2[C@H]1C(=O)O
- binding [1, 9]: no

Structure (SMILES): CN[C@H](CC(C)C)C(=O)N[C@H]1C(=O)N[C@@H](CC(N)=O)C(=O)N[C@H]2C(=O)N[C@H]3C(=O)N[C@H](C(=O)N[C@H](C(=O)O)c4cc(O)cc(O)c4-c4cc3ccc4O)[C@H](O)c3ccc(c(Cl)c3)Oc3cc2cc(c3O[C@@H]2O[C@H](CO)[C@@H](O)[C@H](O)[C@H]2O[C@H]2C[C@](C)(N)[C@H](O)[C@H](C)O2)Oc2ccc(cc2Cl)[C@H]1O
- koff [2]: 0.0033 s⁻¹
- koff [3]: ~ 0.16 min^-1
- binding [4]: no
- binding [5]: weak
- binding [6]: yes
- binding [7]: yes
- koff [8]: ~ 0.2 min^-1

Structure (SMILES): CO[C@H]1/C=C/O[C@@]2(C)Oc3c(C)c(O)c4c(O)c(c(/C=N/N5CCN(C)CC5)c(O)c4c3C2=O)NC(=O)/C(C)=C\C=C\[C@H](C)[C@H](O)[C@@H](C)[C@@H](O)[C@@H](C)[C@H](OC(C)=O)[C@@H]1C
- binding [1, 9]: no

Structure (SMILES): OC[C@H]1OC(O)[C@H](O)[C@@H](O)[C@@H]1O (stereo partly shown)
- binding ([1]; 80 µM glucose): no
